# Measurements published in PubChem BioAssay AID252 (DTP/NCI, 2004).
# “And” between values parts separate entries of the source, which are not always exact repeats. Equal values may be shown once. Toxic doses and inconclusive results are not listed.
# System: BDF1 mice, intracerebral L1210 leukemia, survival T/C
# Test: NCI In Vivo Anticancer Drug Screen. Data for tumor model L1210 Leukemia (intracerebral) in B6D2F1 (BDF1) mice
# Conditions: higher = longer survival
# Outline: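 Survival measured in treated and vehicle-control tumour-bearing mice; value = T/C.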
# [1] = endpoint: mean survival time, dose: 18.0 mg/kg/injection, schedule: Q01DX001 (ip), vehicle: carboxymethylcellulose (CMC)
# [2] = endpoint: mean survival time, dose: 26.0 mg/kg/injection, schedule: Q01DX001 (ip), vehicle: carboxymethylcellulose (CMC)
# [3] = endpoint: mean survival time, dose: 40.0 mg/kg/injection, schedule: Q01DX001 (ip), vehicle: carboxymethylcellulose (CMC)
# [4] = endpoint: mean survival time, dose: 60.0 mg/kg/injection, schedule: Q01DX001 (ip), vehicle: carboxymethylcellulose (CMC)
smiles,measurement,setting,value
OCCN1CCN(CCCN2c3ccccc3Sc3ccc(C(F)(F)F)cc32)CC1,T/C,"endpoint: mean survival time, dose: 12.5 mg/kg/injection, schedule: Q04DX003 (ip), vehicle: saline",102 % of control
same,T/C,"endpoint: mean survival time, dose: 25.0 mg/kg/injection, schedule: Q04DX003 (ip), vehicle: saline",106 % of control
same,T/C,"endpoint: mean survival time, dose: 50.0 mg/kg/injection, schedule: Q04DX003 (ip), vehicle: saline",112 % of control
same,T/C,"endpoint: mean survival time, dose: 100.0 mg/kg/injection, schedule: Q04DX003 (ip), vehicle: saline",94 % of control
O=NN(CCCl)C(=O)Nc1cc(NC(=O)N(CCCl)N=O)cc(C(=O)O)c1,T/C,"endpoint: mean survival time, dose: 1.5 mg/kg/injection, schedule: Q01DX001 (ip), vehicle: carboxymethylcellulose (CMC)",108 % of control
same,T/C,"endpoint: mean survival time, dose: 3.0 mg/kg/injection, schedule: Q01DX001 (ip), vehicle: carboxymethylcellulose (CMC)",106 % of control
same,T/C,"endpoint: mean survival time, dose: 5.0 mg/kg/injection, schedule: Q01DX001 (ip), vehicle: carboxymethylcellulose (CMC)",104 % of control
same,T/C,"endpoint: mean survival time, dose: 8.0 mg/kg/injection, schedule: Q01DX001 (ip), vehicle: carboxymethylcellulose (CMC)",104 % of control
same,T/C,"endpoint: mean survival time, dose: 12.0 mg/kg/injection, schedule: Q01DX001 (ip), vehicle: carboxymethylcellulose (CMC)",102 % of control
same,T/C,[1],110 % of control
same,T/C,[2],106 % of control
same,T/C,[3],93 % of control
same,T/C,[4],87 % of control
O=NN(CCCl)C(=O)Nc1c[nH]c(=O)[nH]c1=O,T/C,"endpoint: mean survival time, dose: 4.4 mg/kg/injection, schedule: Q01DX001 (ip), vehicle: carboxymethylcellulose (CMC)",103 % of control
same,T/C,"endpoint: mean survival time, dose: 6.7 mg/kg/injection, schedule: Q01DX001 (ip), vehicle: carboxymethylcellulose (CMC)",101 % of control
same,T/C,"endpoint: mean survival time, dose: 10.0 mg/kg/injection, schedule: Q01DX001 (ip), vehicle: carboxymethylcellulose (CMC)",102 % of control
same,T/C,"endpoint: mean survival time, dose: 15.0 mg/kg/injection, schedule: Q01DX001 (ip), vehicle: carboxymethylcellulose (CMC)",103 % of control
same,T/C,"endpoint: mean survival time, dose: 20.0 mg/kg/injection, schedule: Q01DX001 (ip), vehicle: carboxymethylcellulose (CMC)",98 % of control
same,T/C,"endpoint: mean survival time, dose: 30.0 mg/kg/injection, schedule: Q01DX001 (ip), vehicle: carboxymethylcellulose (CMC)",107 % of control
same,T/C,[3],100 % of control
same,T/C,[4],94 % of control
OC(C1CO1)C(O)C1CO1 (stereo not given),T/C,"endpoint: mean survival time, dose: 0.65 mg/kg/injection, schedule: Q01DX009 (ip), vehicle: water",96 % of control
same,T/C,"endpoint: mean survival time, dose: 1.0 mg/kg/injection, schedule: Q01DX009 (ip), vehicle: saline",109 % of control and 120 % of control
same,T/C,"endpoint: mean survival time, dose: 1.08 mg/kg/injection, schedule: Q01DX009 (ip), vehicle: water",110 % of control
same,T/C,"endpoint: mean survival time, dose: 1.8 mg/kg/injection, schedule: Q01DX009 (ip), vehicle: water",123 % of control
same,T/C,"endpoint: mean survival time, dose: 2.0 mg/kg/injection, schedule: Q01DX009 (ip), vehicle: saline",92 % of control
same,T/C,"endpoint: mean survival time, dose: 2.0 mg/kg/injection, schedule: Q03HX024 (ip), vehicle: saline",87 % of control
same,T/C,"endpoint: mean survival time, dose: 2.5 mg/kg/injection, schedule: Q01DX001 (ip), vehicle: water",109 % of control
same,T/C,"endpoint: mean survival time, dose: 4.0 mg/kg/injection, schedule: Q01DX009 (ip), vehicle: saline",103 % of control and 92 % of control
same,T/C,"endpoint: mean survival time, dose: 20.0 mg/kg/injection, schedule: Q01DX001 (ip), vehicle: water",104 % of control
same,T/C,"endpoint: mean survival time, dose: 40.0 mg/kg/injection, schedule: Q01DX001 (ip), vehicle: water",102 % of control
same,T/C,"endpoint: median survival time, dose: 0.5 mg/kg/injection, schedule: Q01DX001 (oral), vehicle: saline",106 % of control
same,T/C,"endpoint: median survival time, dose: 4.0 mg/kg/injection, schedule: Q01DX001 (oral), vehicle: saline",115 % of control
same,T/C,"endpoint: median survival time, dose: 8.0 mg/kg/injection, schedule: Q01DX001 (oral), vehicle: saline",97 % of control
same,T/C,"endpoint: median survival time, dose: 16.0 mg/kg/injection, schedule: Q01DX001 (oral), vehicle: saline",86 % of control
O=NN(CCCl)C(=O)Nc1ccc(Cn2ccc(=O)[nH]c2=O)cc1,T/C,[1],109 % of control
same,T/C,[2],110 % of control
same,T/C,[3],109 % of control
same,T/C,[4],122 % of control
same,T/C,"endpoint: mean survival time, dose: 90.0 mg/kg/injection, schedule: Q01DX001 (ip), vehicle: carboxymethylcellulose (CMC)",119 % of control
O=NN(CCF)C(=O)NCCCl,T/C,"endpoint: mean survival time, dose: 9.0 mg/kg/injection, schedule: Q01DX001 (ip), vehicle: Klucel (hydroxypropylcellulose) (HPC)",156 % of control and 203 % of control
same,T/C,"endpoint: mean survival time, dose: 14.0 mg/kg/injection, schedule: Q01DX001 (ip), vehicle: Klucel (hydroxypropylcellulose) (HPC)",233 % of control and 338 % of control
same,T/C,"endpoint: mean survival time, dose: 21.0 mg/kg/injection, schedule: Q01DX001 (ip), vehicle: Klucel (hydroxypropylcellulose) (HPC)",456 % of control and 513 % of control
same,T/C,"endpoint: mean survival time, dose: 32.0 mg/kg/injection, schedule: Q01DX001 (ip), vehicle: Klucel (hydroxypropylcellulose) (HPC)",622 % of control and 710 % of control
same,T/C,"endpoint: mean survival time, dose: 48.0 mg/kg/injection, schedule: Q01DX001 (ip), vehicle: Klucel (hydroxypropylcellulose) (HPC)",727 % of control
same,T/C,"endpoint: mean survival time, dose: 71.0 mg/kg/injection, schedule: Q01DX001 (ip), vehicle: Klucel (hydroxypropylcellulose) (HPC)",228 % of control
S=c1nc[nH]c2nc[nH]c12,T/C,"endpoint: mean survival time, dose: 5.0 mg/kg/injection, schedule: Q01DX009 (ip), vehicle: alkali diluted with saline",122 % of control
same,T/C,"endpoint: mean survival time, dose: 6.0 mg/kg/injection, schedule: Q01DX015 (ip), vehicle: alkali diluted with saline",114 % of control
same,T/C,"endpoint: mean survival time, dose: 9.0 mg/kg/injection, schedule: Q01DX015 (ip), vehicle: alkali diluted with saline",120 % of control
same,T/C,"endpoint: mean survival time, dose: 14.0 mg/kg/injection, schedule: Q01DX015 (ip), vehicle: alkali diluted with saline",120 % of control
same,T/C,"endpoint: mean survival time, dose: 60.0 mg/kg/injection, schedule: Q01DX001 (ip), vehicle: alkali diluted with saline",111 % of control
same,T/C,"endpoint: mean survival time, dose: 80.0 mg/kg/injection, schedule: Q01DX009 (ip), vehicle: alkali diluted with saline",181 % of control
same,T/C,"endpoint: mean survival time, dose: 90.0 mg/kg/injection, schedule: Q01DX001 (ip), vehicle: alkali diluted with saline",117 % of control
same,T/C,"endpoint: mean survival time, dose: 135.0 mg/kg/injection, schedule: Q01DX001 (ip), vehicle: alkali diluted with saline",115 % of control
same,T/C,"endpoint: median survival time, dose: 100.0 mg/kg/injection, schedule: Q01DX001 (oral), vehicle: saline with Tween-80",115 % of control
same,T/C,"endpoint: median survival time, dose: 200.0 mg/kg/injection, schedule: Q01DX001 (oral), vehicle: saline with Tween-80",113 % of control
same,T/C,"endpoint: median survival time, dose: 400.0 mg/kg/injection, schedule: Q01DX001 (oral), vehicle: saline with Tween-80",118 % of control
O=NN(CCCl)C(=O)NC1CCCCCCCCCCC1,T/C,"endpoint: mean survival time, dose: 298.0 mg/kg/injection, schedule: Q01DX001 (ip), vehicle: other",103 % of control
same,T/C,"endpoint: mean survival time, dose: 550.0 mg/kg/injection, schedule: Q01DX001 (ip), vehicle: other",124 % of control
same,T/C,"endpoint: mean survival time, dose: 596.0 mg/kg/injection, schedule: Q01DX001 (ip), vehicle: other",108 % of control
same,T/C,"endpoint: mean survival time, dose: 1250.0 mg/kg/injection, schedule: Q01DX001 (ip), vehicle: other",159 % of control and 160 % of control
same,T/C,"endpoint: mean survival time, dose: 1875.0 mg/kg/injection, schedule: Q01DX001 (ip), vehicle: other",123 % of control
same,T/C,"endpoint: mean survival time, dose: 2384.0 mg/kg/injection, schedule: Q01DX001 (ip), vehicle: other",110 % of control
Cc1cccc2c(Nc3ccc(NS(C)(=O)=O)cc3)c3ccc([N+](=O)[O-])cc3nc12,T/C,"endpoint: mean survival time, dose: 10.0 mg/kg/injection, schedule: Q01DX009 (ip), vehicle: saline",114 % of control
same,T/C,"endpoint: mean survival time, dose: 10.0 mg/kg/injection, schedule: Q01DX009 (sc), vehicle: saline",104 % of control
same,T/C,"endpoint: mean survival time, dose: 20.0 mg/kg/injection, schedule: Q01DX009 (ip), vehicle: saline",94 % of control
same,T/C,"endpoint: mean survival time, dose: 20.0 mg/kg/injection, schedule: Q01DX009 (sc), vehicle: saline",101 % of control
same,T/C,"endpoint: mean survival time, dose: 40.0 mg/kg/injection, schedule: Q01DX009 (sc), vehicle: saline",96 % of control
O=c1cn[nH]c(=O)[nH]1,T/C,"endpoint: mean survival time, dose: 440.0 mg/kg/injection, schedule: Q01DX001 (ip), vehicle: carboxymethylcellulose (CMC)",102 % of control
same,T/C,"endpoint: mean survival time, dose: 670.0 mg/kg/injection, schedule: Q01DX001 (ip), vehicle: carboxymethylcellulose (CMC)",101 % of control
same,T/C,"endpoint: mean survival time, dose: 1000.0 mg/kg/injection, schedule: Q01DX001 (ip), vehicle: carboxymethylcellulose (CMC)",101 % of control
Nc1nc2n[nH]nc2c(=O)[nH]1,T/C,"endpoint: mean survival time, dose: 89.0 mg/kg/injection, schedule: Q01DX015 (ip), vehicle: water",170 % of control
same,T/C,"endpoint: mean survival time, dose: 117.0 mg/kg/injection, schedule: Q01DX001 (ip), vehicle: carboxymethylcellulose (CMC)",108 % of control
same,T/C,"endpoint: mean survival time, dose: 179.0 mg/kg/injection, schedule: Q01DX001 (ip), vehicle: carboxymethylcellulose (CMC)",107 % of control
same,T/C,"endpoint: mean survival time, dose: 267.0 mg/kg/injection, schedule: Q01DX001 (ip), vehicle: carboxymethylcellulose (CMC)",105 % of control
